Experimental data: ChEMBL document CHEMBL1201862, “PubChem BioAssay data set” (2004)
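Step 1: Grow cells in 96-well plates. Step 2: Expose to compound for 48 hours at 5 concentrations. Step 3: Interpolate endpoints linearly; if unreached, use highest concentration. Here, GI50 denotes the concentration required for 50% inhibition of growth.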 The source made the active and inactive calls. No stated cut-off is given here; in the data, active = GI50 up to about 1.1 µM and inactive = higher.

Tests used:
Experiment in all cases: NCI tumour cell line growth inhibition, 48 h
786-0 = tested on: 786-0
A498 = tested on: A498
A549 = tested on: A549
ACHN = tested on: ACHN
CAKI-1 = tested on: CAKI-1
CCRF-CEM = tested on: CCRF-CEM
COLO 205 = tested on: COLO 205
DLD-1 = tested on: DLD-1
DMS-114 = tested on: DMS-114
DMS-273 = tested on: DMS-273
EKVX = tested on: EKVX
HCC 2998 = tested on: HCC 2998
HCT-116 = tested on: HCT-116
HCT-15 = tested on: HCT-15
HL-60 = tested on: HL-60
HOP-18 = tested on: HOP-18
HOP-62 = tested on: HOP-62
HT-29 = tested on: HT-29
IGROV-1 = tested on: IGROV-1
K562 = tested on: K562
KM-20L2 = tested on: KM-20L2
KM12 = tested on: KM12
LOX IMVI = tested on: LOX IMVI
LXFL 529 = tested on: LXFL 529
M14 = tested on: M14
M19-MEL = tested on: M19-MEL
MOLT-4 = tested on: MOLT-4
Malme-3M = tested on: Malme-3M
NCI-H226 = tested on: NCI-H226
NCI-H23 = tested on: NCI-H23
NCI-H460 = tested on: NCI-H460
NCI-H522 = tested on: NCI-H522
OVCAR-3 = tested on: OVCAR-3
OVCAR-4 = tested on: OVCAR-4
OVCAR-5 = tested on: OVCAR-5
OVCAR-8 = tested on: OVCAR-8
RPMI-8226 = tested on: RPMI-8226
RXF 393 = tested on: RXF 393
SF-268 = tested on: SF-268
SF-295 = tested on: SF-295
SF-539 = tested on: SF-539
SK-MEL-28 = tested on: SK-MEL-28
SK-MEL-2 = tested on: SK-MEL-2
SK-MEL-5 = tested on: SK-MEL-5
SK-OV-3 = tested on: SK-OV-3
SN12C = tested on: SN12C
SNB-19 = tested on: SNB-19
SNB-75 = tested on: SNB-75
SNB-78 = tested on: SNB-78
SR = tested on: SR
SW-620 = tested on: SW-620
TK-10 = tested on: TK-10
U-251 = tested on: U-251
UACC-257 = tested on: UACC-257
UACC-62 = tested on: UACC-62
UO-31 = tested on: UO-31
HOP-92 = tested on: HOP-92

In the case of `CC(=O)Nc1ccc(C2[C@H]3C(=O)N(c4ccc(Cc5ccc(N6C(=O)[C@@H]7ON(c8ccccc8)C(c8ccc(NC(C)=O)cc8)[C@@H]7C6=O)cc5)cc4)C(=O)[C@H]3ON2c2ccccc2)cc1` (stereo partly specified), the GI50 (786-0) is reported as > 100 µM (inactive), the GI50 (A498) is reported as > 100 µM (inactive) and the GI50 (A549) is reported as > 100 µM (inactive). The GI50 (ACHN) was > 100 µM (inactive), the GI50 (CAKI-1) was 98.2 µM (inactive) and the GI50 (CCRF-CEM) was > 100 µM (inactive). The GI50 (COLO 205) was 74.6 µM (inactive), the GI50 (DLD-1) was > 100 µM (inactive) and the GI50 (DMS-114) was > 100 µM (inactive). The GI50 (DMS-273) was > 100 µM (inactive), the GI50 (EKVX) was > 100 µM (inactive) and the GI50 (HCC 2998) was > 100 µM (inactive). For the same compound, the GI50 (HCT-116) was > 100 µM (inactive), the GI50 (HCT-15) was greater than 100 µM and the GI50 (HL-60) was > 100 µM (inactive). The GI50 (HOP-18) was > 100 µM (inactive), the GI50 (HOP-62) was > 100 µM (inactive) and the GI50 (HT-29) was > 100 µM (inactive). The GI50 (IGROV-1) was > 100 µM (inactive), the GI50 (K562) was > 100 µM (inactive) and the GI50 (KM-20L2) was > 100 µM (inactive). For the same compound, the GI50 (KM12) was > 100 µM (inactive), the GI50 (LOX IMVI) was > 100 µM (inactive) and the GI50 (LXFL 529) was > 100 µM (inactive). For the same compound, the GI50 (M14) was 25.2 µM (inactive), the GI50 (M19-MEL) was 44.2 µM (inactive) and the GI50 (MOLT-4) was > 100 µM (inactive). For the same compound, the GI50 (Malme-3M) was > 100 µM (inactive), the GI50 (NCI-H226) was > 100 µM (inactive) and the GI50 (NCI-H23) was > 100 µM (inactive). The GI50 (NCI-H460) was > 100 µM (inactive), the GI50 (NCI-H522) was > 100 µM (inactive) and the GI50 (OVCAR-3) was > 100 µM (inactive). For the same compound, the GI50 (OVCAR-4) was > 100 µM (inactive), the GI50 (OVCAR-5) was > 100 µM (inactive) and the GI50 (OVCAR-8) was > 100 µM (inactive). The GI50 (RPMI-8226) was > 100 µM (inactive), the GI50 (RXF 393) was > 100 µM (inactive) and the GI50 (SF-268) was > 100 µM (inactive). The GI50 (SF-295) was > 100 µM (inactive), the GI50 (SF-539) was > 100 µM (inactive) and the GI50 (SK-MEL-28) was > 100 µM (inactive). The GI50 (SK-MEL-2) was > 100 µM (inactive), the GI50 (SK-MEL-5) was 32.6 µM (inactive) and the GI50 (SK-OV-3) was > 100 µM (inactive). The GI50 (SN12C) was > 100 µM (inactive), the GI50 (SNB-19) was > 100 µM (inactive) and the GI50 (SNB-75) was > 100 µM (inactive). The GI50 (SNB-78) was > 100 µM (inactive), the GI50 (SR) was > 100 µM (inactive) and the GI50 (SW-620) was > 100 µM (inactive). For the same compound, the GI50 (TK-10) was > 100 µM (inactive), the GI50 (U-251) was > 100 µM (inactive) and the GI50 (UACC-257) was > 100 µM (inactive). For the same compound, the GI50 (UACC-62) was 70.8 µM (inactive) and the GI50 (UO-31) was > 100 µM (inactive).
For `O=C1C=C(Nc2ccccc2C(=O)c2ccccc2)c2ccccc2C1=O`, the GI50 (786-0) was > 100 µM (inactive), the GI50 (A498) was > 100 µM (inactive) and the GI50 (A549) was > 100 µM (inactive). For the same compound, the GI50 (ACHN) was 45 µM (inactive), the GI50 (CAKI-1) was > 100 µM (inactive) and the GI50 (COLO 205) was > 100 µM (inactive). For the same compound, the GI50 (DLD-1) was > 100 µM (inactive), the GI50 (DMS-114) was 36.1 µM (inactive) and the GI50 (DMS-273) was > 100 µM (inactive). The GI50 (EKVX) was > 100 µM (inactive), the GI50 (HCC 2998) was > 100 µM (inactive) and the GI50 (HCT-116) was > 100 µM (inactive). The GI50 (HCT-15) was 70.5 µM, the GI50 (HOP-18) was > 100 µM (inactive) and the GI50 (HOP-62) was > 100 µM (inactive). The GI50 (HOP-92) was 4.06 µM (inactive), the GI50 (HT-29) was > 100 µM (inactive) and the GI50 (IGROV-1) was > 100 µM (inactive). For the same compound, the GI50 (KM-20L2) was > 100 µM (inactive), the GI50 (KM12) was 33.3 µM (inactive) and the GI50 (LXFL 529) was > 100 µM (inactive). The GI50 (M14) was > 100 µM (inactive), the GI50 (M19-MEL) was 9.14 µM (inactive) and the GI50 (Malme-3M) was > 100 µM (inactive). For the same compound, the GI50 (NCI-H226) was > 100 µM (inactive), the GI50 (NCI-H23) was > 100 µM (inactive) and the GI50 (NCI-H460) was 71 µM (inactive). The GI50 (NCI-H522) was 25 µM (inactive), the GI50 (OVCAR-3) was 70 µM (inactive) and the GI50 (OVCAR-4) was 89.3 µM (inactive). For the same compound, the GI50 (OVCAR-5) was > 100 µM (inactive), the GI50 (OVCAR-8) was > 100 µM (inactive) and the GI50 (RPMI-8226) was 51.6 µM (inactive). The GI50 (RXF 393) was > 100 µM (inactive), the GI50 (SF-268) was > 100 µM (inactive) and the GI50 (SF-295) was > 100 µM (inactive). For the same compound, the GI50 (SF-539) was > 100 µM (inactive), the GI50 (SK-MEL-28) was > 100 µM (inactive) and the GI50 (SK-MEL-2) was > 100 µM (inactive). The GI50 (SK-OV-3) was > 100 µM (inactive), the GI50 (SN12C) was 42.8 µM (inactive) and the GI50 (SNB-19) was > 100 µM (inactive). For the same compound, the GI50 (SNB-75) was 96.6 µM (inactive), the GI50 (SNB-78) was > 100 µM (inactive) and the GI50 (SR) was 48.1 µM (inactive). For the same compound, the GI50 (SW-620) was 87.9 µM (inactive), the GI50 (U-251) was 70.8 µM (inactive) and the GI50 (UACC-257) was 5.85 µM (inactive). The GI50 (UACC-62) was 8.04 µM (inactive) and the GI50 (UO-31) was > 100 µM (inactive).
